Data set [1] deals with Sigma non-opioid intracellular receptor 1 (Homo sapiens, UniProt Q99720). As to the kind of experiment: Displacement of [3H]pentazocine from human sigma 1 receptor expressed in HEK293 cell membrane incubated for 2 hrs by liquid scintillation counting method. The format is cell membranes. In general terms: Loss of bound radioactivity is the signal in a displacement assay; it reports binding, not function.

In data set [2] the target is T1, Sigma intracellular receptor 2 (Rattus norvegicus, UniProt Q5U3Y7).
T1 sequence (Q5U3Y7 whole entry): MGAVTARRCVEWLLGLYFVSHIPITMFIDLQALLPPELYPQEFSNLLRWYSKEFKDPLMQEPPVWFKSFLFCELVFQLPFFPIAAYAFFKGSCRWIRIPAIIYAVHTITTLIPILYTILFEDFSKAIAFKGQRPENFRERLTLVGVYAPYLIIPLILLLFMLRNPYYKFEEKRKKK
Nature of the data set: Displacement of (+)-[3H]DTG from sigma 2 receptor in SPRD rat liver membrane incubated for 2 hrs by liquid scintillation counting method. The format is cell membranes.

Another data set deals with Acetylcholinesterase (Homo sapiens, UniProt P22303). As to the kind of experiment: Inhibition of human AChE.
Acetylcholinesterase, sequence (P22303 whole entry): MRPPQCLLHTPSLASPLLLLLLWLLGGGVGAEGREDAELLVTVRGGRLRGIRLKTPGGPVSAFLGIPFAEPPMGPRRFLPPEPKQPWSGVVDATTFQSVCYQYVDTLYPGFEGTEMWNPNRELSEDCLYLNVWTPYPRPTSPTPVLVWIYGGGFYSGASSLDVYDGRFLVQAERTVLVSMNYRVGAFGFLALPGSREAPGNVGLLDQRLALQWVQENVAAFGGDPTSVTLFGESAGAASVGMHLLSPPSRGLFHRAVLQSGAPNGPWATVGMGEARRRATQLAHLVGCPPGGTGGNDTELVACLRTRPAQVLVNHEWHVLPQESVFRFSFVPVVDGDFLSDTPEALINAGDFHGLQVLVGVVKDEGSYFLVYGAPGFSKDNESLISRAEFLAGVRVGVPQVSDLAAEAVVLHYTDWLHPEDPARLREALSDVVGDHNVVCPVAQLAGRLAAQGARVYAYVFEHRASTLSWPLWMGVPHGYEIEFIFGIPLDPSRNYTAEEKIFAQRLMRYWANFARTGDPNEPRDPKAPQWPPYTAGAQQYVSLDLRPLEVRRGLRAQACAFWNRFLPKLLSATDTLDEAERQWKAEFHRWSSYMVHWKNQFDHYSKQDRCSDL
Another data set has as its target Cholinesterase (Homo sapiens, UniProt P06276). Nature of the data set: Inhibition of human BuChE.
Data set [3] addresses T2, Amine oxidase [flavin-containing] B (Homo sapiens, UniProt P27338).
T2 sequence (P27338 whole entry): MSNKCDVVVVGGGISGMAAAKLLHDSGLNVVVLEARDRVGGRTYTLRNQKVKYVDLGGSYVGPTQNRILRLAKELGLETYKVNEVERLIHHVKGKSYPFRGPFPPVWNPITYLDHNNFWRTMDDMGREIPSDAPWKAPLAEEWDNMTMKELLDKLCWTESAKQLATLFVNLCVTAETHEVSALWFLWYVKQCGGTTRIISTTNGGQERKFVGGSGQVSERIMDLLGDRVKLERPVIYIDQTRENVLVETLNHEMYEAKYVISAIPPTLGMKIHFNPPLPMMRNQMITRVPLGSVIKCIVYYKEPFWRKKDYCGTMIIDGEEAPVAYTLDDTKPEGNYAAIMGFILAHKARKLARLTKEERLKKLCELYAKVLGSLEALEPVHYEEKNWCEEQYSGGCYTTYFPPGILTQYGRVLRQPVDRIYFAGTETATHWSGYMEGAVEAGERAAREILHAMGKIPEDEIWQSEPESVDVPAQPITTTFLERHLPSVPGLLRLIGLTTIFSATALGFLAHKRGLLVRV
Nature of the data set: Inhibition of human MAO-B.

Data set [4] has as its target T3, MAO-B (amine oxidase [flavin-containing] B) (Homo sapiens, UniProt P27338).
T3 sequence (P27338 whole entry): T2 sequence (P27338 whole entry)
As to the kind of experiment: Inhibition of human MAO-B assessed as residual activity at 10 uM. Particulars: read-out: Activity; call rule not given here.

The values below come from ChEMBL document CHEMBL4732042, “Studies on the affinity of 6-[(n-(cyclo)aminoalkyl)oxy]-4H-chromen-4-ones for sigma 1/2 receptors” (RSC Med Chem, 2021).

In general, Ki refers to a dissociation constant, usually derived from enzyme kinetics or from competition with a known ligand. A low value points to a stronger hold on the target. As a reminder, the IC50 is the concentration at which inhibition is half-maximal.

Sigma non-opioid intracellular receptor 1, sequence (Q99720 whole entry): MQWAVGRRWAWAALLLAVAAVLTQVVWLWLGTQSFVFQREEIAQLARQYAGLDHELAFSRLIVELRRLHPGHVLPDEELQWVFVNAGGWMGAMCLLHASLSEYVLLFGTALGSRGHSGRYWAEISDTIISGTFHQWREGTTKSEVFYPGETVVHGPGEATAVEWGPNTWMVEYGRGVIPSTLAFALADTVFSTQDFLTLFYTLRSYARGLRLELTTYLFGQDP
Cholinesterase, sequence (P06276 whole entry): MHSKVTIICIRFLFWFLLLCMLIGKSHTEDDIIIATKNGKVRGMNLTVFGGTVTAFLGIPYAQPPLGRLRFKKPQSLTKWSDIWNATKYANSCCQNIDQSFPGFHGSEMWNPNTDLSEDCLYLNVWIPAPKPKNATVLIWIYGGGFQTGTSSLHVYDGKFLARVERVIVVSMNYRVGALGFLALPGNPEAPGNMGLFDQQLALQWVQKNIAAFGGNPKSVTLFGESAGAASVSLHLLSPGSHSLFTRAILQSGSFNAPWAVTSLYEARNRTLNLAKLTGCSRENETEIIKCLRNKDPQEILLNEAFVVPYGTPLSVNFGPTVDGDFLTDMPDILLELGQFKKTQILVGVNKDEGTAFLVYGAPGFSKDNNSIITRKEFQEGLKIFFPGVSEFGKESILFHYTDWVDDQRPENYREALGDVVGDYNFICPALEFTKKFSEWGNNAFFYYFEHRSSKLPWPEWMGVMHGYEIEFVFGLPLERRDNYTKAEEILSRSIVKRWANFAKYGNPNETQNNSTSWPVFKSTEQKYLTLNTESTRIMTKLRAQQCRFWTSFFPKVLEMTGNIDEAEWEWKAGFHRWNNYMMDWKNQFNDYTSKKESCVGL

Consider `O=c1ccoc2ccc(OCCN3CCCC3)cc12`, for which the Ki in data set [1] was 2.87 µM; in data set [2], 12.5 µM.

On to `O=c1ccoc2ccc(OCCCCN3CCCCC3)cc12`, for which the Ki in data set [1] was 0.309 µM; in data set [2] it was 1.97 µM. Moreover, the IC50 was found to be 5.58 µM on Acetylcholinesterase, 87.5 µM against Cholinesterase and 7.2 µM in data set [3] (read-out: IC50).

On to `O=c1ccoc2ccc(OCCN3CCOCC3)cc12`, for which the Ki in data set [2] is greater than 10 µM.

On to `O=c1ccoc2ccc(OCCCCCN3CCCC3)cc12`, for which the inhibition constant (Ki) was 0.087 µM in data set [1] and 1.45 µM in data set [2]. The IC50 entry in data set [3] was “Not Active”.

As to `C[C@@H]1CCCN1CCCCOc1ccc2occc(=O)c2c1`, the figures for the Ki in data set [1] and in data set [2] were 0.104 µM and 1.09 µM, respectively.

With `O=c1ccoc2ccc(OCCCN3CCCCCC3)cc12`, the Ki in data set [1] was found to be 0.0272 µM; in data set [2], 0.75 µM. Moreover, in data set [4], the activity at 10 µM came out at 54%.

For `CN1CCN(CCCOc2ccc3occc(=O)c3c2)CC1`, the Ki in data set [1] was 0.809 µM; in data set [2], 17.1 µM.

For the compound `O=c1ccoc2ccc(OCCCN3CCOCC3)cc12`, the Ki worked out at 0.245 µM in data set [1] and 22.5 µM in data set [2]. In addition, the half-inhibitory concentration (IC50) in data set [3] (read-out: IC50) amounted to 1.18 µM.

For the compound `C[C@@H]1CCCN1CCCCCOc1ccc2occc(=O)c2c1`, the figures for the inhibition constant (Ki) in data set [1] and in data set [2] were 0.134 µM and 0.583 µM, respectively.

As for `O=c1ccoc2ccc(OCCN3CCCCC3)cc12`, the Ki in data set [1] was found to be 0.825 µM; in data set [2] it was 9.07 µM.

Consider `O=c1ccoc2ccc(OCCCCCN3CCOCC3)cc12`, for which the Ki was found to be 0.0196 µM in data set [1] and 2.63 µM in data set [2]. The same compound showed an IC50 on Cholinesterase greater than 100 µM. Also, the activity at 10 µM in data set [4] was found to be 58%.

For `CN1CCN(CCOc2ccc3occc(=O)c3c2)CC1`, the Ki in data set [1] is 0.604 µM; in data set [2], 14.2 µM.

In the case of `O=c1ccoc2ccc(OCCN3CCCCCC3)cc12`, the Ki came to 0.113 µM in data set [1] and 1.62 µM in data set [2].

With `O=c1ccoc2ccc(OCCCCN3CCCC3)cc12`, the values for the Ki in data set [1] and in data set [2] were 0.227 µM and 3.11 µM, respectively.

On to `O=c1ccoc2ccc(OCCCN3CCCCC3)cc12`, for which the Ki turned out to be 0.0655 µM in data set [1] and 2.89 µM in data set [2]. In addition, in data set [3], the IC50 entry is reported as “Not Active”.

With `CCN(CC)CCCOc1ccc2occc(=O)c2c1`, the Ki is 1.22 µM in data set [1] and 8.36 µM in data set [2].

Take `CN1CCN(CCCCCOc2ccc3occc(=O)c3c2)CC1`: the Ki amounted to 0.0825 µM in data set [1] and 4.1 µM in data set [2].

Consider `O=c1ccoc2ccc(OCCCN3CCCC3)cc12`, for which the figures for the inhibition constant (Ki) in data set [1] and in data set [2] were 0.499 µM and 23.9 µM, respectively.

In the case of `O=c1ccoc2ccc(OCCCCCN3CCCCC3)cc12`, the inhibitory constant (Ki) worked out at 0.213 µM in data set [1] and 0.49 µM in data set [2].

For the compound `CCN(CC)CCOc1ccc2occc(=O)c2c1`, the Ki came out at 12.1 µM in data set [1] and 30 µM in data set [2].

As to `CCN(CC)CCCCCOc1ccc2occc(=O)c2c1`, the Ki in data set [1] is 0.218 µM; in data set [2], 2.5 µM.

On to `O=c1ccoc2ccc(OCCCCN3CCOCC3)cc12`, for which the Ki was 0.0239 µM in data set [1] and 14.6 µM in data set [2].
